Columns and labels:
[1] = molecular target: T1, CDK9/CycT1 (Homo sapiens, UniProt P50750); test: CDK9/CycT1 high ATP kinase assay (TR-FRET, 2 mM ATP); assay type: biochemical; details: 2 mM ATP (high ATP); median; read-out: CDK9/CyclinT1, 2 mM ATP (high ATP), IC50 (median)
T1 construct: Recombinant full-length His-tagged human CDK9 and CycT1; purchased Life Technologies PV4131; host or cells: insect cells
Protocol: CDK9/CycT1-inhibitory activity of compounds of the present invention at a high ATP concentration after preincubation of enzyme and test compounds was quantified employing the CDK9/CycT1 TR-FRET assay as described in the following paragraphs.
Recombinant full-length His-tagged human CDK9 and CycT1, expressed in insect cells and purified by Ni-NTA affinity chromatography, were purchased from Life Technologies (Cat. No PV4131). As substrate for the kinase reaction biotinylated peptide biotin-Ttds-[…] (C-terminus in amide form) was used which can be purchased e.g. form the company JERINI peptide technologies (Berlin, Germany).
For the assay 50 nanoL of a 100 fold concentrated solution of the test compound in DMSO was pipetted into either a black low volume 384 well microtiter plate or a black 1536 well microtiter plate (both Greiner Bio-One, Frickenhausen, Germany), 2 microL of a solution of CDK9/CycT1 in aqueous assay buffer [50 millimol/L Tris/HCl pH 8.0, 10 millimol/L MgCl2, 1.0 millimol/L dithiothreitol, 0.1 millimol/L sodium ortho-vanadate, 0.01% (v/v) Nonidet-P40 (Sigma)] were added and the mixture was incubated for 15 min at 22° C. to allow pre-binding of the test compounds to the enzyme before the start of the kinase reaction. […] The concentration of CDK9/CycT1 was adjusted depending of the activity of the enzyme lot and was chosen appropriate to have the assay in the linear range, typical concentrations were in the range of 0.5 microg/ml.
The resulting mixture was incubated 1 h at 22° C. to allow the formation of complex between the phosphorylated biotinylated peptide and the detection reagents. Subsequently the amount of phosphorylated substrate was evaluated by measurement of the resonance energy transfer from the Eu-chelate to the streptavidine-XL. Therefore, the fluorescence emissions at 620 nm and 665 nm after excitation at 350 nm was measured in a TR-FRET reader, e.g. a Pherastar (BMG Labtechnologies, Offenburg, Germany) or a Viewlux (Perkin-Elmer). The ratio of the emissions at 665 nm and at […] was taken as the measure for the amount of phosphorylated substrate.

[2] = test system: MDA-MB-231, human breast cancer cells; test: Proliferation assay MDA-MB-231 (crystal violet, 4 days); assay type: cell-based; details: Homo sapiens, MDA-MB-231, 96 h, MDA-MB-231 cells, median, read-out: Prolif-MDA MB-231, IC50-[mol/l] (median)
Protocol: Human tumour cells were originally obtained from the American Type Culture Collection (ATCC), or from the Deutsche Sammlung von Mikroorganismen und Zellkulturen (DSMZ, German Collection of Microorganisms and Cell Cultures). Cultivated tumour cells (CAL-120, human breast adenocarcinoma cells, DSMZ ACC-459; MDA-MB-231, human breast cancer cells, ATCC HTB-26) were plated at a density of 4,000 cells/well in a 96-well multititer plate in 200 microL of their respective growth medium supplemented 10% fetal calf serum. After 24 hours, the cells of one plate (zero-point plate) were stained with crystal violet (see below), while the medium of the other plates was supplemented with the test substances in various concentrations (0 micromol/L, as well as in the range of 0.01-10 micromol/L; the final concentration of the solvent dimethyl sulfoxide was adjusted to 0.1%) using a Tecan HP D300 Digital Dispenser. The cells were incubated for 4 days in the presence of test substances. Cell proliferation was determined by staining the cells with crystal violet: the cells were fixed by adding 20 microL/measuring point of an 11% glutaric aldehyde solution for 15 minutes at room temperature. After three washing cycles of the fixed cells with water, the plates were dried at room temperature. The cells were stained by adding 100 microL/measuring point of a 0.1% crystal violet solution (pH 3.0). After three washing cycles of the stained cells with water, the plates were dried at room temperature. The dye was dissolved by adding 100 microL/measuring point of a 10% acetic acid solution. The extinction was determined by photometry at a wavelength of 595 nm. The change of cell number, in percent, was calculated by normalization of the measured values to the extinction values of the zero-point plate (=0%) and the extinction of the untreated (0 μM) cells (=100%). The IC50 values (inhibitory concentration at 50% of maximal effect) were determined by means of a 4 parameter fit.

[3] = molecular target: T2, CDK12 (nuclear staining in CAL-120 cells) (Homo sapiens, UniProt Q9NYV4); test: CDK12 nuclear protein level: immunofluorescence/high content analysis (CAL-120); assay type: cell-based; details: for DC50: CAL-120 cells, 24 h, immunofluorescence, 50% reduction of nuclear CDK12 staining intensity, median, read-out: CDK12 degradation IF, DC50- [mol/l] (median); for (IC50 CDK12 high ATP) to (Degradation DC50 CDK12) ratio: ratio of IC50 CDK12 high ATP kinase assay to DC50 CDK12 degradation (IF, CAL-120)
T2 construct: endogenous in cells; host or cells: CAL-120 human breast cancer cells (DSMZ ACC 459)
Protocol: In the context of the present invention, the term “DC50 CDK12” refers to the DC50 values obtained according to the assay described in this section (7) herein below, i.e. the DC50 values for the degradation of CDK12.
Plates are then incubated for 24 h at 37° C. in an humidified incubator and fixed with 4% PFA for 10 min. […] Nuclear and cytoplasmic intensity as well as the nuclear/cytoplasmic intensity ratio is determined by automated image analysis using custom generated scripts (MetaXpress). Data is then transferred to Genedata Screener software, normalized to DMSO and control and DC50 values (degrading concentration to achieve 50% reduction of nuclear CDK12 staining intensity relative to controls) are reported.

T1 sequence (P50750 whole entry): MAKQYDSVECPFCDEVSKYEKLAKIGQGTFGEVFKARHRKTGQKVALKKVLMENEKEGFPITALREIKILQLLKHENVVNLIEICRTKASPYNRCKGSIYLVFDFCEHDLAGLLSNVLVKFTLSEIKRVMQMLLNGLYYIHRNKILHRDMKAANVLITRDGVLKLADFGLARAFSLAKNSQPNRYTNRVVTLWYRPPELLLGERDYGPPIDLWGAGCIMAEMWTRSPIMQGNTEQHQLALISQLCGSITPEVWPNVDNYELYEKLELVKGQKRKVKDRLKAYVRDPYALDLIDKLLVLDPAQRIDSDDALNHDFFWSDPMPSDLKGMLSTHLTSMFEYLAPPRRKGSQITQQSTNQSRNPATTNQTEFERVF
T1 sequence (O60563 whole entry partner): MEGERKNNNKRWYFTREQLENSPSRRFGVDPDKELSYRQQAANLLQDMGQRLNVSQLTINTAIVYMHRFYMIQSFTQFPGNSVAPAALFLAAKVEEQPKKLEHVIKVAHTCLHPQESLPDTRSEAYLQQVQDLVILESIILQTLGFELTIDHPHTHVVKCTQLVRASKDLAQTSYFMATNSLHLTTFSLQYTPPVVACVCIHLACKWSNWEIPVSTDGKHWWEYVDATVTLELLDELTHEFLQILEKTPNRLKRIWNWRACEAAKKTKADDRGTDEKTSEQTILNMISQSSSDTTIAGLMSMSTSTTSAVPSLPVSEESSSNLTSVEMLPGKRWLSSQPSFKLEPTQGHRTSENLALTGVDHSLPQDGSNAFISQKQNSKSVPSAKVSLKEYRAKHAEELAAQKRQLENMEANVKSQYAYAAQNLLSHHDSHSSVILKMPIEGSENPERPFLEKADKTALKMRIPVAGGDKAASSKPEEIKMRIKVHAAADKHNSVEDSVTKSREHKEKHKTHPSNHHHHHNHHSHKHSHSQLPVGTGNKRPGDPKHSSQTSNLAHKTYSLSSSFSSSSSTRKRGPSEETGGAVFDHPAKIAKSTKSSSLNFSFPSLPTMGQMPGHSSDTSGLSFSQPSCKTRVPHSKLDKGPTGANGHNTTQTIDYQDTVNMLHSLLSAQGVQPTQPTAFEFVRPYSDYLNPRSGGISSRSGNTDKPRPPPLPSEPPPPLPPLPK
T2 sequence (Q9NYV4 whole entry): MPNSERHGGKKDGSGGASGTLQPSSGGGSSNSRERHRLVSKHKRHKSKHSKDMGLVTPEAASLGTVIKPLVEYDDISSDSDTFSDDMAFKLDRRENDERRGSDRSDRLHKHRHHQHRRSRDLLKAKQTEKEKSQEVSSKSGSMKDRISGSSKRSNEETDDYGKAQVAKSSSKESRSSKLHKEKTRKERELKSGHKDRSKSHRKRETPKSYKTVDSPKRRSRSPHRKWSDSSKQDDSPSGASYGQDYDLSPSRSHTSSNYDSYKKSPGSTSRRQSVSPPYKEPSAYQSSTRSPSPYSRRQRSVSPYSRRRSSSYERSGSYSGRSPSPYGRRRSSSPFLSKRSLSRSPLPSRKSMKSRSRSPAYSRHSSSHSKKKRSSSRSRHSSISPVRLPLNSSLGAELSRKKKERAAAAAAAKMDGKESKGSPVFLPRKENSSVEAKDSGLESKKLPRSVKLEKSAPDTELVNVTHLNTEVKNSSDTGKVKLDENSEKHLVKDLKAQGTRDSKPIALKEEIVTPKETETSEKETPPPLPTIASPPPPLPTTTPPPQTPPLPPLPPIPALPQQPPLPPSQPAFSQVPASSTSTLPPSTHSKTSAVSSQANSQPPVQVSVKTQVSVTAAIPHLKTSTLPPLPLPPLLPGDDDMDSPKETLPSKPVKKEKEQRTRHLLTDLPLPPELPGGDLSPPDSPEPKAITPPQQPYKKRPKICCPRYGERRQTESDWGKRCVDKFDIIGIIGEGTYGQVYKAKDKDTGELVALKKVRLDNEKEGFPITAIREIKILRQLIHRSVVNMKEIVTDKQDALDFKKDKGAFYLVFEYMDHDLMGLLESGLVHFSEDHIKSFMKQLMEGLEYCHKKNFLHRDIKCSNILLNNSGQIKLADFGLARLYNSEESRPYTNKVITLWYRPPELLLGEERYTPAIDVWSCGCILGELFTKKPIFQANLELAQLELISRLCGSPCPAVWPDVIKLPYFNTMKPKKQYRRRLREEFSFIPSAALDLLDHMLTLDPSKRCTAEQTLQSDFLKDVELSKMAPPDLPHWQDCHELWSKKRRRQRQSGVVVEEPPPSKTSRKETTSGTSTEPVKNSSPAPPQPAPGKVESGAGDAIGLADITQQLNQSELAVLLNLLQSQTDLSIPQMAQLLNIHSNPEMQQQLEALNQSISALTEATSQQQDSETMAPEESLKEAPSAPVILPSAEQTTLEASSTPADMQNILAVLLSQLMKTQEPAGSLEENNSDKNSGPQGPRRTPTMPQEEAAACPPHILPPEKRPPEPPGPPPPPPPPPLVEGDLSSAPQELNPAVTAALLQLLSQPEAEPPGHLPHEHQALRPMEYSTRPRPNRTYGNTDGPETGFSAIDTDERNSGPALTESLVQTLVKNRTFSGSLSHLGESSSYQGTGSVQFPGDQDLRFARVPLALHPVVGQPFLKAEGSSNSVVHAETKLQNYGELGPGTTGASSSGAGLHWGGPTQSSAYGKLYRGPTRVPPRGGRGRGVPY
T2 sequence (O75909 whole entry partner): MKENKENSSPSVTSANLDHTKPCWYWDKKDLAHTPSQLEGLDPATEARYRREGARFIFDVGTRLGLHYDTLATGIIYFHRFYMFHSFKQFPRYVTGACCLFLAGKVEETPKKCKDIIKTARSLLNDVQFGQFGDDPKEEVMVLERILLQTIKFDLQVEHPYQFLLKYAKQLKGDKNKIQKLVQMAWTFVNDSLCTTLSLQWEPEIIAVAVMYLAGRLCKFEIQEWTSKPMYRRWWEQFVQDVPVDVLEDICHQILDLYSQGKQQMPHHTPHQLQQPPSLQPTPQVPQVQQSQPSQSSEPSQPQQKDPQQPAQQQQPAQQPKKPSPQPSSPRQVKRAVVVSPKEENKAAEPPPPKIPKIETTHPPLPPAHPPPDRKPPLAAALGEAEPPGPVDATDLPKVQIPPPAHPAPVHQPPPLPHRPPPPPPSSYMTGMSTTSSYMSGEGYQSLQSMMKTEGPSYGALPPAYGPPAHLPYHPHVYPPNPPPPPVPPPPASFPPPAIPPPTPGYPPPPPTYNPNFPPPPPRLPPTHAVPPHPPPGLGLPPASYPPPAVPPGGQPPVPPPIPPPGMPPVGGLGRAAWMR

IC50 [1] [nM] | IC50 [2] [nM] | DC50 [3] [nM] | (IC50 CDK12 high ATP) to (Degradation DC50 CDK12) ratio [3] | Compound
> 20000 | 25.3 | 1.07 | 1628 | Brc1cnn2c(NCc3nc4ccccc4[nH]3)nc(N3CCOCC3)nc12 [Example 4, N-[(1H-benzimidazol-2-yl)methyl]-8-bromo-2-(morpholin-4-yl)pyrazolo[1,5-a][1,3,5]triazin-4-amine]
> 16100 | 16.1 | 3.32 | 537 | CC(C)c1cnn2c(NCc3nc4ccccc4[nH]3)nc(N3CCOC[C@@H]3C)nc12 [Example 6, N-[(1H-benzimidazol-2-yl)methyl]-2-[(3S)-3-methylmorpholin-4-yl]-8-(propan-2-yl)pyrazolo[1,5-a][1,3,5]triazin-4-amine]
> 18900 | – | 8.64 | 197 | NCCc1ccc2[nH]c(CNc3nc(N4CCOCC4)nc4c(Br)cnn34)nc2c1.O=CO [Example 113, formic acid-N-{[5-(2-aminoethyl)-1H-benzimidazol-2-yl]methyl}-8-bromo-2-(morpholin-4-yl)pyrazolo[1,5-a][1,3,5]triazin-4-amine (1/1)]
> 20000 | – | 38.8 | 210 | NCCCc1cccc2[nH]c(CNc3nc(N4CCOCC4)nc4c(Br)cnn34)nc12.O=CO [Example 114, formic acid-N-{[4-(3-aminopropyl)-1H-benzimidazol-2-yl]methyl}-8-bromo-2-(morpholin-4-yl)pyrazolo[1,5-a][1,3,5]triazin-4-amine (1/1)]
> 20000 | – | 45.3 | 256 | CC(=O)NCCCc1cccc2[nH]c(CNc3nc(N4CCOCC4)nc4c(Br)cnn34)nc12.O=CO [Example 115, formic acid-N-{3-[2-({[8-bromo-2-(morpholin-4-yl)pyrazolo[1,5-a][1,3,5]triazin-4-yl]amino}methyl)-1H-benzimidazol-4-yl]propyl}acetamide (1/1)]
> 20000 | – | 4.44 | 1517 | CCC1COCCN1c1nc(NCc2nc3ccccc3[nH]2)n2ncc(Br)c2n1 (centres unmarked) [Example 116, N-(1H-benzimidazol-2-ylmethyl)-8-bromo-2-(3-ethylmorpholin-4-yl)pyrazolo[1,5-a][1,3,5]triazin-4-amine]
> 20000 | – | 3.77 | 1278 | Brc1cnn2c(NCc3nc4ccccc4[nH]3)nc(N3CCOCC3C3CC3)nc12 (centres unmarked) [Example 117, N-(1H-benzimidazol-2-ylmethyl)-8-bromo-2-(3-cyclopropylmorpholin-4-yl)pyrazolo[1,5-a][1,3,5]triazin-4-amine]
3630 | – | 4.85 | 1176 | Brc1cnn2c(NCc3nnc(-c4ccccc4)[nH]3)nc(N3C[C@H]4C[C@@H]3CO4)nc12 [Example 118, 8-bromo-2-[(1R,4R)-2-oxa-5-azabicyclo[2.2.1]heptan-5-yl]-N-[(5-phenyl-4H-1,2,4-triazol-3-yl)methyl]pyrazolo[1,5-a][1,3,5]triazin-4-amine]
6210 | – | 1.54 | 4303 | Brc1cnn2c(NCc3nnc(-c4ccccc4)[nH]3)nc(N3CCNCC3)nc12.O=CO [Example 119, 8-bromo-N-[(5-phenyl-4H-1,2,4-triazol-3-yl)methyl]-2-piperazin-1-yl-pyrazolo[1,5-a][1,3,5]triazin-4-amine formate]
10400 | – | 5.08 | 2588 | Brc1cnn2c(NCc3nnc(-c4ccccc4)[nH]3)nc(N3C[C@@H]4C[C@H]3CO4)nc12 [Example 120, 8-bromo-2-[(1S,4S)-2-oxa-5-azabicyclo[2.2.1]heptan-5-yl]-N-[(5-phenyl-4H-1,2,4-triazol-3-yl)methyl]pyrazolo[1,5-a][1,3,5]triazin-4-amine]
10100 | – | 43.5 | 172 | CN1CCN(c2nc(NCc3nnc(-c4ccccc4)[nH]3)n3ncc(Br)c3n2)CC1=O [Example 121, 4-(8-bromo-4-{[(5-phenyl-4H-1,2,4-triazol-3-yl)methyl]amino}pyrazolo[1,5-a][1,3,5]triazin-2-yl)-1-methylpiperazin-2-one]
4260 | – | 2.47 | >8081 | C[C@H]1CN(c2nc(NCc3nnc(-c4ccccc4)[nH]3)n3ncc(Br)c3n2)CCN1C.O=CO [Example 122, 8-bromo-2-[(3S)-3,4-dimethylpiperazin-1-yl]-N-[(5-phenyl-4H-1,2,4-triazol-3-yl)methyl]pyrazolo[1,5-a][1,3,5]triazin-4-amine formate]
> 20000 | – | 4.37 | 2883 | CC1(C)CN(c2nc(NCc3nc4ccccc4[nH]3)n3ncc(C4CC4)c3n2)CCO1 [Example 123, N-[(1H-benzimidazol-2-yl)methyl]-8-cyclopropyl-2-(2,2-dimethylmorpholin-4-yl)pyrazolo[1,5-a][1,3,5]triazin-4-amine]
6100 | – | 0.768 | 636 | COc1ccc2[nH]c(CNc3nc(N4C[C@@H](C)O[C@@H](C)C4)nc4c(Br)cnn34)nc2c1 [Example 124, 8-bromo-2-[(2R, 6S)-2,6-dimethylmorpholin-4-yl]-N-[(5-methoxy-1H-benzimidazol-2-yl)methyl]pyrazolo[1,5-a][1,3,5]triazin-4-amine]
3790 | – | 6.3 | 1724 | C[C@@H]1CN(c2nc(NCc3nnc(-c4ccccc4)[nH]3)n3ncc(Br)c3n2)C[C@H](C)N1C [Example 125, 8-bromo-N-[(5-phenyl-4H-1,2,4-triazol-3-yl)methyl]-2-[(3R,5S)-3,4,5-trimethylpiperazin-1-yl]pyrazolo[1,5-a][1,3,5]triazin-4-amine]
> 20000 | – | 16 | 677 | Brc1cnn2c(NCc3nc4ccccc4[nH]3)nc(N3CCN4CCC[C@H]4C3)nc12 [Example 148, N-[(1H-benzimidazol-2-yl)methyl]-8-bromo-2-[(8aS)-hexahydropyrrolo[1,2-a]pyrazin-2 (1 H)-yl]pyrazolo[1,5-a][1,3,5]triazin-4-amine]
